Measured values taken from ChEMBL document CHEMBL3243971, “Synthesis and beta-adrenoceptor activity of the erythro and threo isomers of substituted alpha-hydroxytrimetoquinol” (J Med Chem, 1978).

Experiments:
[1] = species: Cavia porcellus; assay: Agonist activity at beta-adrenoceptor in guinea pig trachea assessed as tracheal relaxation; assay type: tissue-based
[2] = species: Cavia porcellus; assay: Intrinsic activity at beta-adrenoceptor in guinea pig trachea assessed as tracheal relaxation at 10^-10 to 10^-4 M relative to control; assay type: tissue-based
[3] = target: T1, Adrenergic receptor beta (Rattus norvegicus) (UniProt P18090+P10608+P26255); conditions: Sprague-Dawley, Plasma
Description: Agonist activity at beta-adrenoceptor in Sprague-Dawley rat adipocytes assessed as adenylate cyclase activity in plasmalemma measured as radiolabelled cAMP level after 10 mins by scintillation counting

[4] = target: T1, Adrenergic receptor beta (Rattus norvegicus); conditions: Sprague-Dawley
Description: Agonist activity at beta-adrenoceptor in Sprague-Dawley rat fat cells assessed as cAMP accumulation after 10 mins

[5] = species: Cavia porcellus; assay: Intrinsic activity at beta-adrenoceptor in guinea pig atrium assessed as positive chronotropic effect at 10^-10 to 10^-4 M relative to control; assay type: tissue-based; conditions: Cardiac atrium
[6] = species: Cavia porcellus; assay: Agonist activity at beta-adrenoceptor in guinea pig atrium assessed as positive chronotropic effect; assay type: tissue-based; conditions: Cardiac atrium
[7] = target: T1, Adrenergic receptor beta (Rattus norvegicus); conditions: Sprague-Dawley; remark: listed apart in the source
Description: Agonist activity at beta-adrenoceptor in Sprague-Dawley rat adipocytes assessed as lipolysis measured as glycerol release

SMILES: COc1cc(C[C@@H]2NCCc3cc(O)c(O)cc32)cc(OC)c1OC (racemic)
- pD2 [1]: 9
- Intrinsic activity [2]: 0.88
- pD2 [3]: 8.5
- pD2 [4]: 7.7
- Intrinsic activity [5]: 0.9
- pD2 [6]: 9.1
- pD2 [7]: 7.3

SMILES: COc1cc([C@@H](O)[C@@H]2NCCc3cc(O)c(O)cc32)cc(OC)c1OC (racemic)
- pD2 [1]: 6
- Intrinsic activity [2]: 0.76
- pD2 [3]: 6.2
- pD2 [4]: 6.4
- Intrinsic activity [5]: 0.78
- pD2 [6]: 6.1
- pD2 [7]: 6.8

SMILES: COc1cc([C@H](O)[C@@H]2NCCc3cc(O)c(O)cc32)cc(OC)c1OC (racemic)
- pD2 [1]: 6.8
- Intrinsic activity [2]: 0.88
- pD2 [3]: 6.8
- pD2 [4]: 6.7
- Intrinsic activity [5]: 0.8
- pD2 [6]: 6.5
- pD2 [7]: 7
